Source: US10918714B2, “Human iNKT cell activation using glycolipids with altered glycosyl groups” (Academia Sinica, priority 2013, dated 2021)
Entries after “also recorded” stand apart in the source; their conditions may differ.

Tests used:
[1] = biological target: T1, mCD1d dimer (Mus musculus, UniProt P11609); test: Binding strength of the binary complex between mCD1d and glycolipid (L363 antibody ELISA); details: KD from Scatchard transformation (FIG. 10D)
T1 construct: Ig fusion (dimer); purchased BD Biosciences PharMingen
T1 sequence (P11609 19-305 limits assumed): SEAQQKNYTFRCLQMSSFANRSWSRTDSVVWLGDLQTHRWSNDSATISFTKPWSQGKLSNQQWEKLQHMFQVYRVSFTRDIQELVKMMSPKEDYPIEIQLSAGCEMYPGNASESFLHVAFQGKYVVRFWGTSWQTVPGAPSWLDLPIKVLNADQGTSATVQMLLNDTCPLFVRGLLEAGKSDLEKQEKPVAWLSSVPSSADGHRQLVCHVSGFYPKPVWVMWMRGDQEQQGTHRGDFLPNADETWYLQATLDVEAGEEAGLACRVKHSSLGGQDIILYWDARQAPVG
T1 sequence (P01887 21-119 partner): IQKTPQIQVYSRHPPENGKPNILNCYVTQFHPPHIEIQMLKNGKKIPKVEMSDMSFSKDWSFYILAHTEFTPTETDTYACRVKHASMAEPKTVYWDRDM
Protocol: Different concentrations of mCD1d^di-glycolipid complexes coated on the ELISA plate were incubated with the saturated amounts of L363 antibody (BioLegend) conjugated with biotin, followed by streptavidin-HRP detection and ELISA measurement. The KD between L363 antibody and the indicated mCD1d^di-glycolipid complex was calculated from the linear regression of the Scatchard transformation of the L363 antibody binding curve using GraphPad Prism software. […] Next, the KD of the binary complex was determined as follows. Different concentrations of glycolipids were incubated with fixed amounts of mCD1d dimer at 37° C. overnight, and then mCD1d^di-glycolipid complexes were coated on the 96 well ELISA plate at 4° C. overnight. After washing and blocking with BSA at room temperature (RT) for 1 hr, L363 antibody conjugated with biotin was added for 30 min at RT, followed by incubation with streptavidin-HRP for 30 min at RT and detection with an ELSIA reader. KD values of the binary complex were calculated from the linear regression of the Scatchard transformation of the L363 antibody binding curve.

[2] = tested on: Human naïve Vα24+ iNKT cells; test: Expansion of human iNKT cells; type: cell-based; details: DCs pulsed with glycolipid at 100 ng/ml, IL-2 culture
Protocol: Human naïve Vα24^+ iNKT cells were cultured with autologous immature CD14^+ DCs pulsed with the indicated glycolipid at 100 ng/ml or DMSO on day 2 for 18 h. On day 3, the suspension cells were transferred to a new dish, cultured in the presence of 50 U/ml IL-2 (R & D Systems), and replenished with fresh medium every 3 days. The percentage of Vα24^+/Vβ11^+ cells was determined by flow cytometry on day 9. The total cell number after expansion was calculated with the Guava ViaCount reagent (Millipore, USA) and detected by the Guava system with CytoSoft™ software containing the ViaCount module (Millipore, USA).
Vα24^+ iNKT cells and CD14^+ cells were isolated from peripheral blood cells as described previously.^19 Immature DCs were generated from the CD14^+ cells after 2-day incubation in the presence of 300 U/ml GM-CSF (R & D Systems) and 100 U/ml IL-4 (R& D Systems).

[3] = tested on: Jα18 knockout mice; test: Murine serum cytokine/chemokine secretion after i.v. glycolipid, Jα18 knockout mice; type: in vivo; details: Jα18 KO mice, 1 μg/mouse
Protocol: (§1) All the glycolipids were dissolved in 100% DMSO at a concentration of 1-2 mg/ml. For in vivo experiments, all compounds were diluted to 10 μg/ml in saline just before injection of 100 μl diluted glycolipid or 100 μl 1% DMSO into mice. Pathogen-free C57BL/6 female mice aged 6-12 weeks were obtained from the National Laboratory Animal Center (Taipei, Taiwan). Jα18 knockout (KO) B6 mice were the gifts from Dr. Masaru Taniguchi (RIKEN Research Center for Allergy and Immunology, Yokohama, Japan). All the mice were maintained in pathogen free vivarium of Institute of Cellular and Organismic Biology, Academia Sinica (Taipei, Taiwan).
(§2) B6 WT or Jα18 KO mice were intravenously injected with vehicle or glycolipids at 0.1 or 1 μg/mouse. Serum was collected at 2 and 18 h after injection for measurement of cytokines/chemokines by Beadlyte® Mouse Cytokine kit (Millipore, N.Y.) and read by a Luminex® 200™ system (Luminex, Austin, Tex.).

[4] = biological target: mouse iNKT TCR (Mus musculus, UniProt A0A0B4J1J9+P11609); test: Binding avidity of mCD1d-loaded glycolipids to Vα14+ iNKT cells (ternary interaction); details: for Kd: mCD1d-glycolipid complex, DN3A4-1.2 murine iNKT hybridoma cells
Protocol: Briefly, murine CD1d:Ig dimer (BD Biosciences PharMingen, San Diego, Calif.) was loaded with glycolipids at a molar ratio of 1:10 or vehicle for overnight at 37° C. Murine 1.2 Vα14^+ iNKT cells were incubated with various doses of dimer-glycolipid complex in buffer containing azide (0.05%) for 30 min at 4° C. These cells were then stained with anti-mouse IgG1-PE mAb (A85-1) for another 30 min at 4° C., followed by washing, fixation with 4% paraformaldehyde (PFA), and the bound mCD1d dimer complexes were detected by flow cytometry. The binding curve and linear fit of the Scatchard transformation were plotted by Graphpad Prism software.

[5] = tested on: C1-pulsed splenocytes; test: CD1d dimer staining of in vivo C1-pulsed splenocytes; type: binding; details: B6 WT splenocytes 3 days after C1 1 μg/mouse, CD3+/CD45R− gate
Protocol: FIGS. 11A-D show: CD1d dimer staining of in vivo C1-pulsed splenocytes. B6 WT splenocytes (n=3) were harvested 3 days after injection with C1 (1 μg/mouse) and stained with CD3, CD45R and the indicated dimer complex conjugated with RPE for 1 hr at 4 degrees Celsius. (11A) CD3+/CD45R− cells were gated to analyze the dimer staining. (11B) unloaded dimer was used as the control. (11C) mCD1d dimer loaded with 7DW8-5-Glc stained 17.1±0.8% of C1-pulsed splenocytes. (11D) mCD1d dimer loaded with 7DW8-5 stained 36.2±5.0% of C1-pulsed splenocytes.

[6] = tested on: B6 wild type mice; test: Murine serum cytokine/chemokine secretion after i.v. glycolipid, B6 WT mice; type: in vivo; details: i.v. 1 μg/mouse; for induction of serum cytokines/chemokines: sera 2 and 18 hr after injection
Protocol: as §1, §2

[7] = tested on: Jα18 KO mouse splenocytes; test: FACS analyses of Jα18 KO mouse immune cells (splenocytes) after glycolipid stimulation; type: in vivo; details: Jα18 KO mice, 3 days after i.v. injection, 1 μg/mouse
Protocol: (§3) B6 WT or Jα18 KO mice treated with specific glycolipid (1 μg/mouse) or vehicle (1% DMSO in PBS) were sacrificed at 72 hr post-injection and their spleens were harvested. After pressing spleens through 70 um strainer and lysis of erythrocytes, the nucleated cells were resuspended in PBS buffer containing azide (0.05%) and stained with antibodies recognizing the indicated cell surface antigens for 30 min at 4° C. After washing, the splenocytes were subjected to FACS analysis. The antibodies against CD3, CD4, CD8β, CD11c, CD80, and CD86 were obtained from BD Bioscience-Pharmingen.

[8] = tested on: C1-expanded Vα24+ iNKT cells; test: mCD1d vs. hCD1d swapping assay, human iNKT cells; type: cell-based; details: presented by mCD1d (A20-CD1d) or hCD1d (HeLa-CD1d), 1, 0.1, 0.01 μg/ml
Protocol: (§4) Vα24^+ iNKT cell lines expanded with 7DW8-5 or C1 were generated as follows. After irradiation with 2,000 rad, the immature DCs were cocultured with syngenic Vα24^+ iNKT cells in the presence of 7DW8-5 or C1 at 100 ng/ml for 1 day. The cells were expanded in the presence of 50 U/ml IL-2 for 10-14 days after lipid removal. The same procedures were repeated once for further stimulation and expansion of iNKT cells.
(§5) Murine DN3A4-1.2 Vα14^+ iNKT hybridoma cells or C1-expanded Vα24^+ iNKT cells were pulsed with the indicated glycolipid antigen presented either by mCD1d (A20-CD1d cells) or hCD1d (HeLa-CD1d cells) at 1, 0.1, and 0.01 μg/ml. After 18 hr, the supernatants were harvested for the measurement of cytokine secretion(s). IL-2 released from Vα14^+ iNKT cells was determined by ELISA assay. IFN-γ, IL-4 and IL-2 secreted from Vα24^+ iNKT cells were detected using Beadlyte® Human Cytokine kit (Millipore, N.Y., USA) and Luminex® 200™ reading system.

[9] = tested on: Murine DN3A4-1.2 Vα14+ iNKT hybridoma cells; test: mCD1d vs. hCD1d swapping assay, murine iNKT cells; type: cell-based, mouse; details: presented by mCD1d (A20-CD1d) or hCD1d (HeLa-CD1d), 1, 0.1, 0.01 μg/ml
Protocol: as §5

[10] = tested on: B6 WT mice splenocytes; test: FACS analyses of WT mouse immune cells (splenocytes) after glycolipid stimulation; type: in vivo; details: 1 μg/mouse, 72 hr post-injection
Protocol: as §3

[11] = biological target: human iNKT TCR (Homo sapiens, UniProt A0A0B4J240+P15813); test: Binding avidity of hCD1d-loaded glycolipids with Vα24+ iNKT cells (ternary interaction)
Protocol: Binding avidity of human CD1d-glycolipid complexes to Vα24^+ iNKT cells expanded by 7DW8-5 at 100 ng/ml was determined as described previously.^19
as §4

[12] = tested on: murine iNKT cell; details: as compared to αGalCer; cited from earlier work
[13] = tested on: human iNKT cell; details: as compared to αGalCer; cited from earlier work
[14] = tested on: Jα18 knockout mice; details: Jα18 KO mice; cited from earlier work

Sequence of mouse iNKT TCR (A0A0B4J1J9 entry or part of it, one chain of several): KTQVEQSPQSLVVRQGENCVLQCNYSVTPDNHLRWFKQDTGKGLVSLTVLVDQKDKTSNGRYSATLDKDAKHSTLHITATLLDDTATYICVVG
Sequence of human iNKT TCR (A0A0B4J240 22-114): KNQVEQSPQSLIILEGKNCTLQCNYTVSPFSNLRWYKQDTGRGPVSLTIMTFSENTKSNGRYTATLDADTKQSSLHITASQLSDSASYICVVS
Sequence of human iNKT TCR (A0A075B6N4 22-114, further chain): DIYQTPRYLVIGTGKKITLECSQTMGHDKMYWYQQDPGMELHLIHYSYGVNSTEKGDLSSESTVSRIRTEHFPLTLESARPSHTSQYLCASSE
Sequence of human iNKT TCR (P61769 21-119, further chain): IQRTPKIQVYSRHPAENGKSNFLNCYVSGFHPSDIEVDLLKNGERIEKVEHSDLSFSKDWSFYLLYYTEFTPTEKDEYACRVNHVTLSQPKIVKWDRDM
Sequence of human iNKT TCR (P15813 20-301): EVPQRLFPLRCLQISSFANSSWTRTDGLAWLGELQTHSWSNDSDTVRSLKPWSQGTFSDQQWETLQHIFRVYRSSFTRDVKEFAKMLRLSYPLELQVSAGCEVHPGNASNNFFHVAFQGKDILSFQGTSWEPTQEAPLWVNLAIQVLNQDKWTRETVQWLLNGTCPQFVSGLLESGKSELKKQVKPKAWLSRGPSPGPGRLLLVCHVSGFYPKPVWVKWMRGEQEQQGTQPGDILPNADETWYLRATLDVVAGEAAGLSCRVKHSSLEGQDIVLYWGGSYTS

Compound: CC[C@@H](O)[C@@H](O)[C@H](CO[C@H]1OC(CO)[C@@H](O)C(O)C1O)NC(=O)Cc1ccc(F)cc1 (stereo partly drawn) [Compound 7DW8-5-Glc]
- binding avidity to mCD1d dimer relative to αGalCer [1]: ~20 fold
- expanding human iNKT cells in vitro (number of expanded iNKT cells on day 9) [2]: significantly (p=0.0009) better than 7DW8-5
- secretion of chemokines including KC, MCP-1, IP-10 and MIG [3]: triggered the secretion
- induction of cytokines ([3]; sera 2 and 18 hr after injection): no induction of cytokines
- binding avidity of the murine ternary complex versus C34-Glc [4]: comparable
- C1-pulsed splenocytes stained by mCD1d dimer loaded with glycolipid [5]: 17.1±0.8%
- levels of KC, MCP-1, IP-10 and MIG chemokines ([6]; sera 2 and 18 hr): relatively high levels
- levels of Th1 and Th2 cytokines ([6]; sera 2 and 18 hr): very low levels
- CD11chi monocyte-derived DCs expansion and activation [7]: significantly expanded and activated
- total splenocytes, CD4+ T and CD8+ T cells [7]: No significant differences

Compound: CCCCCCCCCCCCCC[C@@H](O)[C@@H](O)[C@H](CO[C@H]1O[C@H](CO)[C@@H](O)[C@H](O)[C@@H]1O)NC(=O)CCCCCCCCCCc1ccc(F)cc1 [Compound 7DW8-5-Man]
- staining of murine iNKT cells with CD1d-glycolipid dimer [4]: lack of staining
- cytokine secretion from human iNKT cells [8]: could not stimulate
- cytokine secretion from mouse iNKT cells [9]: could not stimulate
- induction of serum cytokines/chemokines [6]: failed to induce any cytokines/chemokines
- expansion of immune cells [10]: did not expand any types of immune cells
- staining of human iNKT cells with CD1d-glycolipid dimer [11]: lack of staining

Compound: CC[C@@H](O)[C@@H](O)[C@H](CO[C@H]1OC(CO)[C@@H](O)C(O)C1O)NC(=O)Cc1ccc(Oc2ccc(F)cc2)cc1 (stereo partly drawn) [Compound C34-Glc]
- Kd [4]: 7.96 ± 1.27 nM
- induction of serum cytokines/chemokines [6]: triggered both cytokines and chemokines; also recorded: better than 7DW8-5-Glc
- CD80+ DCs activated, as compared to 7DW8-5-Glc [10]: ~2 fold
- CD86+ DCs activated, as compared to 7DW8-5-Glc [10]: ~2 fold

Compound: CCC(=O)N[C@@H](CO[C@H]1OC(CO)[C@@H](O)C(O)C1O)[C@H](O)[C@H](O)CC (stereo partly drawn) [Compound C1-Glc]
- Kd [4]: 5.14 ± 0.11 nM
- murine iNKT cell proliferation [12]: less stimulatory
- induction of serum cytokines/chemokines [6]: triggered both cytokines and chemokines; also recorded: better than 7DW8-5-Glc
- CD80+ DCs activated, as compared to 7DW8-5-Glc [10]: ~3.5 fold
- CD86+ DCs activated, as compared to 7DW8-5-Glc [10]: ~3 fold
- total splenocytes and DCs expanded, as compared to 7DW8-5-Glc [10]: ~1.3 fold
- human iNKT cell proliferation [13]: more potent

Compound: CCCCCCCCCCCCCCCCCCCCCCCCCC(=O)N[C@@H](CO[C@H]1O[C@H](CO)[C@H](O)[C@H](O)[C@H]1O)[C@H](O)[C@H](O)CCCCCCCCCCCCCC [Compound C1, α-galactosylceramide, reference compound]
- Kd [4]: 1.24 ± 0.003 nM
- IFN-γ in the sera [14]: not secreted
- Kd ([11]; hCD1d-glycolipid complex, human Vα24+/Vβ11+ iNKT cells): 16.4 ± 4.2 nM
